The source of these data is patent US12552825B2 (Zikani Therapeutics, Inc., priority 2019, dated 2026).

What all share (format): cell-based
One assay concerns K. pneumoniae MP-546. The assay is described as follows: MIC determination by CLSI broth dilution, K. pneumoniae MP-546. Particulars: Klebsiella pneumoniae, MP546, CLSI broth dilution; strain MP-546. On the technique in general: Dilution methods test growth across graded concentrations, often in twofold steps.
In another assay the test system is S. aureus MP-12. Nature of the assay: microbe, parasite or virus in culture. Particulars: Staphylococcus aureus, MP12, read-out: MIC S. aureus MP-12.
Another assay relates to E. coli MP-4. The assay is described as follows: MIC determination by CLSI broth dilution, E. coli MP-4. The following applies: Escherichia coli, MP4, CLSI broth dilution; strain MP-4.
A further assay deals with A. baumannii MP-15. Nature of the assay: MIC determination by CLSI broth dilution, A. baumannii MP-15. The following applies: Acinetobacter baumannii, MP15, strain MP-15, read-out: MIC A. baumanii MP-15.
Another assay deals with K. pneumoniae MP-648. The assay is described as follows: MIC determination by CLSI broth dilution, K. pneumoniae MP-648. Particulars: strain MP-648; for MIC: Klebsiella pneumoniae, MP648, CLSI broth dilution.
Another assay deals with P. aeruginosa MP-3. Nature of the assay: MIC determination by CLSI broth dilution, P. aeruginosa MP-3. The following applies: Pseudomonas aeruginosa, MP3, strain MP-3.

Values after ≈ are worked out from the molar mass of the structure shown. Where only a bound is given, the exact number is not on record here.

On to `CCCCCCCN1CCC(C[C@@H]2COC(=O)[C@@](C)(Cl)C(=O)[C@H](C)[C@@H](O[C@@H]3O[C@H](C)C[C@H](N(C)C)[C@H]3O)[C@](C)(OC)C[C@@H](C)CN2C)CC1` [Compound 173], for which the MIC against K. pneumoniae MP-546 was less than 4 µg/mL; in the assay with S. aureus MP-12, more than 32 µg/mL; in the assay on E. coli MP-4, less than 4 µg/mL; with A. baumannii MP-15 it was more than 32 µg/mL; in the assay on K. pneumoniae MP-648, 4 to 32 µg/mL (≈ 5.58 to 44.7 µM); with P. aeruginosa MP-3, more than 32 µg/mL.
With `CO[C@]1(C)C[C@@H](C)CN(C)[C@@H](CCCN2CCC(F)(F)CC2)COC(=O)C(C)(C)C(=O)[C@H](C)[C@H]1O[C@@H]1O[C@H](C)C[C@H](N(C)C)[C@H]1O` [Compound 110, (3S,6R,8R,9R,10R)-3-(3-(4,4-difluoropiperidin-1-yl)propyl)-9-(((2S,3R,4S,6R)-4-(dimethylamino)-3-hydroxy-6-methyltetrahydro-2H-pyran-2-yl)oxy)-8-methoxy-4,6,8,10,12,12-hexamethyl-1-oxa-4-azacyclotridecane-11,13-dione], the MIC against K. pneumoniae MP-546 is 4 to 32 µg/mL (≈ 6.04 to 48.3 µM); in the assay with S. aureus MP-12, 4 to 32 µg/mL (≈ 6.04 to 48.3 µM); in the assay on E. coli MP-4 it was less than 4 µg/mL; with A. baumannii MP-15, more than 32 µg/mL; in the assay on K. pneumoniae MP-648, 4 to 32 µg/mL (≈ 6.04 to 48.3 µM); against P. aeruginosa MP-3, more than 32 µg/mL.
On to `CCCN1CC(C[C@H]2COC(=O)C(C)(C)C(=O)[C@H](C)[C@@H](O[C@@H]3O[C@H](C)C[C@H](N(C)C)[C@H]3O)[C@](C)(OC)C[C@@H](C)CN2C)C1` [Compound 79], for which the MIC against K. pneumoniae MP-546 was more than 32 µg/mL; in the assay with S. aureus MP-12 it was more than 32 µg/mL; against E. coli MP-4 it was 4 to 32 µg/mL (≈ 6.54 to 52.3 µM); in the assay on A. baumannii MP-15 it was more than 32 µg/mL; with K. pneumoniae MP-648 it was more than 32 µg/mL; in the assay on P. aeruginosa MP-3 it was more than 32 µg/mL.
Consider `CO[C@]1(C)C[C@@H](C)CN(C)[C@H](CC2CN(CC(C)C)C2)COC(=O)C(C)(C)C(=O)[C@H](C)[C@H]1O[C@@H]1O[C@H](C)C[C@H](N(C)C)[C@H]1O` [Compound 74], for which the MIC in the assay with K. pneumoniae MP-546, in the assay with S. aureus MP-12, against E. coli MP-4, in the assay with A. baumannii MP-15, against K. pneumoniae MP-648 and against P. aeruginosa MP-3 was more than 32 µg/mL each time.
With `CCN1C[C@H](C)C[C@@](C)(OC)[C@H](O[C@@H]2O[C@H](C)C[C@H](N(C)C)[C@H]2O)[C@@H](C)C(=O)C(C)(C)C(=O)OC[C@H]1[C@H](O)CCN1CCCC1` [Compound 146], the MIC against K. pneumoniae MP-546 is less than 4 µg/mL; in the assay on S. aureus MP-12, 4 to 32 µg/mL (≈ 6.23 to 49.9 µM); in the assay with E. coli MP-4 it was less than 4 µg/mL; in the assay on A. baumannii MP-15, more than 32 µg/mL; in the assay with K. pneumoniae MP-648 it was less than 4 µg/mL; in the assay with P. aeruginosa MP-3, more than 32 µg/mL.
For the compound `C=C(C)C[C@]1(C)C(=O)OC[C@@H](CC2CCN(CCCCCCC)CC2)N(C)C[C@H](C)C[C@@](C)(OC)[C@H](O[C@@H]2O[C@H](C)C[C@H](N(C)C)[C@H]2O)[C@@H](C)C1=O` [Compound 172], the MIC with K. pneumoniae MP-546 was 4 to 32 µg/mL (≈ 5.43 to 43.5 µM); with S. aureus MP-12, 4 to 32 µg/mL (≈ 5.43 to 43.5 µM); against E. coli MP-4, 4 to 32 µg/mL (≈ 5.43 to 43.5 µM); in the assay with A. baumannii MP-15, more than 32 µg/mL; with P. aeruginosa MP-3, more than 32 µg/mL. The “MIC K. pneumoniae MP-648” value with K. pneumoniae MP-648 (CLSI broth dilution) is “++ (values of greater than 4 mg/L and less than or equal to 32 mg/L)”.
On to `CO[C@]1(C)C[C@@H](C)CN(C)[C@@H](CCCN2CCCC2)COC(=O)C(C)(C)C(=O)[C@H](C)[C@H]1O[C@@H]1O[C@H](C)C[C@H](N(C)C)[C@H]1O` [Compound 107, (3S,6R,8R,9R,10R)-9-(((2S,3R,4S,6R)-4-(dimethylamino)-3-hydroxy-6-methyltetrahydro-2H-pyran-2-yl)oxy)-8-methoxy-4,6,8,10,12,12-hexamethyl-3-(3-(pyrrolidin-1-yl)propyl)-1-oxa-4-azacyclotridecane-11,13-dione], for which the MIC against K. pneumoniae MP-546 was less than 4 µg/mL; with S. aureus MP-12 it was 4 to 32 µg/mL (≈ 6.54 to 52.3 µM); in the assay with E. coli MP-4, less than 4 µg/mL; in the assay on A. baumannii MP-15 it was more than 32 µg/mL; against K. pneumoniae MP-648, less than 4 µg/mL; against P. aeruginosa MP-3, more than 32 µg/mL.
As for `CO[C@]1(C)C[C@@H](C)CN(C)[C@H](CC2CCN(C(C)C)CC2)COC(=O)C(C)(C)C(=O)[C@H](C)[C@H]1O[C@@H]1O[C@H](C)C[C@H](N(C)C)[C@H]1O` [Compound 52], the MIC with K. pneumoniae MP-546 was less than 4 µg/mL; in the assay on S. aureus MP-12, 4 to 32 µg/mL (≈ 6.25 to 50 µM); with E. coli MP-4 it was less than 4 µg/mL; in the assay with A. baumannii MP-15 it was more than 32 µg/mL; in the assay on K. pneumoniae MP-648 it was 4 to 32 µg/mL (≈ 6.25 to 50 µM); in the assay on P. aeruginosa MP-3, more than 32 µg/mL.
With `CCN1CCC(C[C@@H]2COC(=O)C(C)(C)C(=O)[C@H](C)[C@@H](O[C@@H]3O[C@H](C)C[C@H](N(C)C)[C@H]3O)[C@](C)(OC)C[C@@H](C)CN2CC)CC1` [Compound 118, (3R,6R,8R,9R,10R)-9-(((2S,3R,4S,6R)-4-(dimethylamino)-3-hydroxy-6-methyltetrahydro-2H-pyran-2-yl)oxy)-4-ethyl-3-((1-ethylpiperidin-4-yl)methyl)-8-methoxy-6,8,10,12,12-pentamethyl-1-oxa-4-azacyclotridecane-11,13-dione], the MIC with K. pneumoniae MP-546 is less than 4 µg/mL; in the assay with S. aureus MP-12, 4 to 32 µg/mL (≈ 6.25 to 50 µM); with E. coli MP-4 it was less than 4 µg/mL; with A. baumannii MP-15 it was 4 to 32 µg/mL (≈ 6.25 to 50 µM); against K. pneumoniae MP-648, less than 4 µg/mL; against P. aeruginosa MP-3, more than 32 µg/mL.
With `COCO[C@@H](C1CCN(CC2CC2)CC1)[C@@H]1COC(=O)C(C)(C)C(=O)[C@H](C)[C@@H](O[C@@H]2O[C@H](C)C[C@H](N(C)C)[C@H]2O)[C@](C)(OC)C[C@@H](C)CN1C` [Compound 29], the MIC against K. pneumoniae MP-546 was more than 32 µg/mL; in the assay on S. aureus MP-12, 4 to 32 µg/mL (≈ 5.62 to 44.9 µM); in the assay on E. coli MP-4, 4 to 32 µg/mL (≈ 5.62 to 44.9 µM); with A. baumannii MP-15, more than 32 µg/mL; against K. pneumoniae MP-648, more than 32 µg/mL; with P. aeruginosa MP-3, more than 32 µg/mL.
Regarding `CCCN1C[C@H](C)C[C@@](C)(OC)[C@H](O[C@@H]2O[C@H](C)C[C@H](N(C)C)[C@H]2O)[C@@H](C)C(=O)C(C)(C)C(=O)OC[C@H]1CCCN1CCc2ncncc2C1` [Compound 182, (3R,6R,8R,9R,10R)-3-(3-(7,8-dihydropyrido[4,3-d]pyrimidin-6 (5H)-yl)propyl)-9-(((2S,3R,4S,6R)-4-(dimethylamino)-3-hydroxy-6-methyltetrahydro-2H-pyran-2-yl)oxy)-8-methoxy-6,8,10,12,12-pentamethyl-4-propyl-1-oxa-4-azacyclotridecane-11,13-dione], the MIC against K. pneumoniae MP-546 is 4 to 32 µg/mL (≈ 5.68 to 45.5 µM); in the assay on S. aureus MP-12, 4 to 32 µg/mL (≈ 5.68 to 45.5 µM); in the assay with E. coli MP-4, less than 4 µg/mL; in the assay with A. baumannii MP-15 it was more than 32 µg/mL; in the assay with K. pneumoniae MP-648, 4 to 32 µg/mL (≈ 5.68 to 45.5 µM); against P. aeruginosa MP-3, more than 32 µg/mL.
As for `CO[C@]1(C)C[C@@H](C)CN(CC(C)C)[C@@H](CCCN2CCc3ccccc3C2)COC(=O)C(C)(C)C(=O)[C@H](C)[C@H]1O[C@@H]1O[C@H](C)C[C@H](N(C)C)[C@H]1O` [Compound 141, (3S,6R,8R,9R,10R)-3-(3-(3,4-dihydroisoquinolin-2 (1H)-yl)propyl)-9-(((2S,3R,4S,6R)-4-(dimethylamino)-3-hydroxy-6-methyltetrahydro-2H-pyran-2-yl)oxy)-4-isobutyl-8-methoxy-6,8,10,12,12-pentamethyl-1-oxa-4-azacyclotridecane-11,13-dione], the MIC against K. pneumoniae MP-546 was less than 4 µg/mL; in the assay with S. aureus MP-12, less than 4 µg/mL; in the assay on E. coli MP-4 it was less than 4 µg/mL; with A. baumannii MP-15, more than 32 µg/mL; in the assay on K. pneumoniae MP-648, 4 to 32 µg/mL (≈ 5.59 to 44.7 µM); against P. aeruginosa MP-3, more than 32 µg/mL.
For `CCCN1CC(C[C@@H]2COC(=O)C(C)(C)C(=O)[C@H](C)[C@@H](O[C@@H]3O[C@H](C)C[C@H](N(C)C)[C@H]3O)[C@](C)(OC)C[C@@H](C)CN2C)C1` [Compound 1], the MIC was 4 to 32 µg/mL (≈ 6.54 to 52.3 µM) against K. pneumoniae MP-546; more than 32 µg/mL with S. aureus MP-12; less than 4 µg/mL against E. coli MP-4; more than 32 µg/mL in the assay on A. baumannii MP-15; more than 32 µg/mL in the assay on K. pneumoniae MP-648; more than 32 µg/mL against P. aeruginosa MP-3.
Regarding `CO[C@]1(C)C[C@@H](C)CN(C)[C@H](C[C@H]2C[C@H](N(C)C)C2)COC(=O)C(C)(C)C(=O)[C@H](C)[C@H]1O[C@@H]1O[C@H](C)C[C@H](N(C)C)[C@H]1O` [Compound 111, (3R,6R,8R,9R,10R)-9-(((2S,3R,4S,6R)-4-(Dimethylamino)-3-hydroxy-6-methyltetrahydro-2H-pyran-2-yl)oxy)-3-(((1r,3S)-3-(dimethylamino)cyclobutyl)methyl)-8-methoxy-4,6,8,10,12,12-hexamethyl-1-oxa-4-azacyclotridecane-11,13-dione], the MIC in the assay on K. pneumoniae MP-546 was less than 4 µg/mL; with S. aureus MP-12 it was 4 to 32 µg/mL (≈ 6.54 to 52.3 µM); in the assay on E. coli MP-4, less than 4 µg/mL; with A. baumannii MP-15, more than 32 µg/mL; in the assay on K. pneumoniae MP-648, less than 4 µg/mL; against P. aeruginosa MP-3 it was more than 32 µg/mL.
Take `CO[C@]1(C)C[C@@H](C)CN(C)[C@H](CC2CCN(C=O)CC2)COC(=O)C(C)(C)C(=O)[C@H](C)[C@H]1O[C@@H]1O[C@H](C)C[C@H](N(C)C)[C@H]1O` [Compound 64]: the MIC against K. pneumoniae MP-546, in the assay with S. aureus MP-12, in the assay on E. coli MP-4, in the assay with A. baumannii MP-15, against K. pneumoniae MP-648 and against P. aeruginosa MP-3 was more than 32 µg/mL in each case.
As for `CO[C@]1(C)C[C@@H](C)CN(C)[C@@H](CCCN2CCC[C@@H]2C(F)(F)F)COC(=O)C(C)(C)C(=O)[C@H](C)[C@H]1O[C@@H]1O[C@H](C)C[C@H](N(C)C)[C@H]1O` [Compound 123, (3S,6R,8R,9R,10R)-9-(((2S,3R,4S,6R)-4-(dimethylamino)-3-hydroxy-6-methyltetrahydro-2H-pyran-2-yl)oxy)-8-methoxy-4,6,8,10,12,12-hexamethyl-3-(3-((R)-2-(trifluoromethyl)pyrrolidin-1-yl)propyl)-1-oxa-4-azacyclotridecane-11,13-dione], the MIC against K. pneumoniae MP-546, in the assay on S. aureus MP-12, with E. coli MP-4, with A. baumannii MP-15, in the assay on K. pneumoniae MP-648 and against P. aeruginosa MP-3 was more than 32 µg/mL in each case.
